Measured values: PMC11217349, “Development of Nurr1 agonists from amodiaquine by scaffold hopping and fragment growing” (Communications Chemistry, 2024)
Values joined by “and” are separate entries in the source; they are usually repeats but may differ in a detail not shown here. Identical values can stand only once. “Also recorded” adds a separate entry of the source.

What was measured:
RARα = molecular target: T1, RARα (Homo sapiens, UniProt P10276); test: Gal4-hybrid selectivity assay RARα; type: cell-based; details: 3 µM; reference agonist = 100%
T1 construct: chimeric receptors composed of the Gal4-DBD and the hinge region and LBD; expressed in transfected cells; host or cells: HEK293T
Protocol: (§1) Nurr1 modulation was determined in a Gal4 hybrid reporter gene assay in HEK293T cells (German Collection of Microorganisms and Cell Culture GmbH, DSMZ) using pFR-Luc (Stratagene, La Jolla, CA, USA; reporter), pRL-SV40 (Promega, Madison, WI, USA; internal control) and pFA-CMV-hNurr1-LBD[14], coding for the hinge region and ligand binding domain of the canonical isoform of human Nurr1. […] After 24 h, the medium was changed to Opti-MEM without supplements, and cells were transiently transfected using Lipofectamine LTX reagent (Invitrogen, Carlsbad, CA, USA) according to the manufacturer’s protocol. Five hours after transfection, cells were incubated with the test compounds in Opti-MEM supplemented with penicillin (100 U/mL), streptomycin (100 μg/mL), and 0.1% DMSO for 16 h before luciferase activity was measured using the Dual-Glo Luciferase Assay System (Promega) according to the manufacturer’s protocol on a Tecan Spark luminometer (Tecan Deutschland GmbH, Crailsheim, Germany). Firefly luminescence was divided by Renilla luminescence and multiplied by 1000 resulting in relative light units (RLU) to normalize for transfection efficiency and cell growth. Fold activation was obtained by dividing the mean RLU of the test compound by the mean RLU of the untreated control. All samples were tested in at least three biologically independent experiments in duplicates. […]

FXR = molecular target: T2, FXR (Homo sapiens, UniProt Q96RI1); test: Gal4-hybrid selectivity assay FXR; type: cell-based; details: 3 µM; reference agonist = 100%
T2 construct: chimeric receptors composed of the Gal4-DBD and the hinge region and LBD; expressed in transfected cells; host or cells: HEK293T
Protocol: as §1

N27 rat neurons = test: WST-8 cytotoxicity assay, N27; type: cell-based
Protocol: Each sample was prepared in four biologically independent repeats. After incubation for 24 h, the medium was refreshed and 10% water-soluble tetrazolinum salt (Cell Counting Kit-8, MedChemExpress) was added to assess metabolic activity. After 4 h, absorbance was measured at 450 nm using a Tecan Spark Cyto instrument (Tecan).

[1] = Parallel artificial membrane permeability assay (PAMPA); type: in vitro ADME; details: 500 µM donor, pH 7.4, 18 h
Protocol: Passive lipid membrane diffusion of test compounds was determined using Merck Millipore MultiScreen Filter Plates (0.45 μm pore diameter, hydrophobic PVDF). The filter inserts were coated with 1% L-α-phosphatidylcholine (Fluka Analytical) in n-dodecan. The test compounds were then added to the donor compartment at a final concentration of 500 µM in a phosphate buffer pH 7.4 containing 5% DMSO with a total volume of 150 µL. The acceptor compartment was filled with 300 µL PBS containing 5% DMSO. Additionally, three equilibrium samples were prepared by directly adding the donor solution to the acceptor compartment for the calculation of log Pe values. The filter plates were incubated for 18 h before the test compound concentrations in the acceptor compartments and in the equilibrium, samples were determined by UV absorbance at 320 nm (34), 360 nm (36), 310 nm (41), or 315 nm (42) with external calibration in a 96 well quartz plate on a SpectraMax M2e microplate reader (Molecular Devices). logPe values were calculated according to the formula published by Sugano and colleagues.

T2 sequence (Q96RI1 262-486 limits assumed): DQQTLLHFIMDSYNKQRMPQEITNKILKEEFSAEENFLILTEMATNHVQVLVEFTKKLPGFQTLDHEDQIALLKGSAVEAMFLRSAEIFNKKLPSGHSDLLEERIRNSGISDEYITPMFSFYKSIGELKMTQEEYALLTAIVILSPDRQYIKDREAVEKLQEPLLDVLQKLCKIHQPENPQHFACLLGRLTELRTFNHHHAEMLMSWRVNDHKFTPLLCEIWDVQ
T1 sequence (P10276 183-417 limits assumed): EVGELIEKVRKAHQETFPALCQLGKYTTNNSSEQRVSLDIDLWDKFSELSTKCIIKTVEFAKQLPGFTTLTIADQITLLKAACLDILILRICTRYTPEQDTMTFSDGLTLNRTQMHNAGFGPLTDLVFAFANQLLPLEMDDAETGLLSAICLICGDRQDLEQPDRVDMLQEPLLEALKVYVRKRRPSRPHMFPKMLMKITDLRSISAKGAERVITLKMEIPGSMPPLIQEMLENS

% rel. act. RARα (RARα): 0.175% and 0.388% and 0.324%
% rel. act. FXR (FXR): 0.311% and 0.333% and 0.363%
SMILES: Cc1nc2c(Cl)cccn2c1NC(=O)c1ccc(-c2ccc(N(C)C)cc2)o1 [Compound 36, N-(8-Chloro-2-methylimidazo[1,2-a]pyridin-3-yl)-5-(4-(dimethylamino)phenyl)furan-2-carboxamide]
rel. absorbance (450 nm) (N27 rat neurons; N27, 10 µM, WST-8, vs DMSO ctrl): 94% and 99% and 90% and 91%
toxicity (WST-8) (N27 rat neurons; N27 rat neurons, 24 h): no toxic effect; also recorded: non-toxic; also recorded: inactive (10 µM)
logPe (PAMPA) [1]: -5.647 and -5.642 and -5.6601 and -5.6738
